Measured values reported in patent publication US20200338084A1, “INHIBITORS OF LOW MOLECULAR WEIGHT PROTEIN TYROSINE PHOSPHATASE (LMPTP) AND USES THEREOF” (Sanford Burnham Prebys Medical Discovery Institute, priority 2018, published 2020).

The compounds below were run against T1, human LMPTP-A (Homo sapiens, UniProt P24666) (assay: Enzyme Assay of Inhibition of LMPTP-A). Details: phosphatase assay, OMFP or pNPP substrate, 50 mM Bis-Tris pH 6.0, 37° C.
T1 sequence (P24666 1-158): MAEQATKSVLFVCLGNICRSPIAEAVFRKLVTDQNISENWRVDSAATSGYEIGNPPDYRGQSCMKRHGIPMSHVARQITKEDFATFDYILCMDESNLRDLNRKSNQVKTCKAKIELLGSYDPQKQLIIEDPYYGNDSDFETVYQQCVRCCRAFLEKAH
Format: biochemical
Method in brief: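 Recombinant human LMPTP-A in 50 mM Bis-Tris pH 6.0, 1 mM DTT, 0.01% Triton X-100 at 37° C. Substrate OMFP read continuously by fluorescence (485/525 nm), or pNPP stopped with NaOH and read at 405 nm. IC50 taken from inhibitor concentration versus % activity plots.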

IC50 [µM]	Compound
1 to 20	CC(=O)c1ccc(Nc2ncn(Cc3c(Cl)cccc3Cl)c3ncnc2-3)cc1 [1-Acetyl-4-({3-[(2,6-dichlorophenyl)methyl](3-hydropurin-6-yl)}amino)benzene]
≤ 1	Cc1ccc(-c2nc3c(N)ncn(Cc4c(Cl)cccc4Cl)c-3n2)s1 [3-[(2,6-Dichlorophenyl)methyl]-8-(5-methyl(2-thienyl))-3-hydropurine-6-ylamine]
1 to 20	FC(F)(F)c1ccc(Nc2ncn(Cc3c(Cl)cccc3Cl)c3ncnc2-3)cc1 [3-(2,6-dichlorobenzyl)-N-(4-(trifluoromethyl)phenyl)-3H-purin-6-amine]
1 to 20	Cc1cccc(C)c1Cn1cnc(N)c2ncnc1-2 [3-(2,6-dimethylbenzyl)-3H-purin-6-amine]
1 to 20	Fc1ccccc1CNc1ncn(Cc2c(Cl)cccc2Cl)c2ncnc1-2 [[3-(2,6-Dichloro-benzyl)-3H-purin-6-yl]-(2-fluoro-benzyl)-amine]
≤ 1	Nc1ncn(Cc2c(Cl)cccc2Cl)c2nc(-c3ccsc3)nc1-2 [3-[(2,6-Dichlorophenyl)methyl]-8-(3-thienyl)-3-hydropurine-6-ylamine]
1 to 20	FC(F)Oc1ccccc1Nc1ncn(Cc2c(Cl)cccc2Cl)c2ncnc1-2 [3-(2,6-dichlorobenzyl)-N-(2-(difluoromethoxy)plienyl)-3H-purin-6-amine]
≤ 1	N#Cc1ccc(-c2nc3c(N)ncn(Cc4c(Cl)cccc4Cl)c-3n2)cc1 [4-{6-Amino-3-[(2,6-dichlorophenyl)methyl]-3-hydropurin-8-yl}benzenecarbonitrile]
1 to 20	Nc1ncn(Cc2ccccc2Cl)c2ncnc1-2 [3-(2-Chloro-benzyl)-3H-purin-6-ylamine]
1 to 20	COc1cccc(Cl)c1Cn1cnc(N)c2ncnc1-2 [3-(2-chloro-6-methoxybenzyl)-3H-purin-6-amine]
1 to 20	O=C(O)c1cccc(Nc2ncn(Cc3c(Cl)cccc3Cl)c3ncnc2-3)c1 [3-({3-[(2,6-Dichlorophenyl)methyl]-3-hydropurin-6-yl}amino)benzoic acid]
1 to 20	Cc1ccccc1Cn1cnc(N)c2ncnc1-2 [3-(2-Methyl-benzyl)-3H-purin-6-ylamine]
1 to 20	CN(C)C(=O)c1ccc(Nc2ncn(Cc3c(Cl)cccc3Cl)c3ncnc2-3)cc1 [4-((3-(2,6-Dichlorobenzyl)-3H-purin-6-yl)amino)-N,N-dimethylbenzamide]
≥ 20	Nc1ncn(Cc2cscn2)c2ncnc1-2 [3-Thiazol-4-ylmethyl-3H-purin-6-ylaniine]
≤ 1	3-[(2,6-dichlorophenyl)methyl]-8-[(4-chlorophenyl)methyl]-3-hydropurine-6-ylamine
≥ 20	Clc1cccc(Cl)c1Cn1cnc(Nc2ccccc2N2CCOCC2)c2ncnc1-2 [{3-[(2,6-Dichlorophenyl)methyl](3-hydropurin-6-yl)}(2-morpholin-4-ylphenyl)amine]

IC50 [µM]	Compound
≥ 20	Nc1ncn(Cc2ccsc2)c2ncnc1-2 [3-Thiophen-3-ylmethyl-3H-purin-6-ylamine]
≤ 1	Nc1ncn(Cc2c(Cl)cccc2[N+](=O)[O-])c2ncnc1-2 [3-(2-Chloro-6-nitrobenzyl)-3H-purin-6-amine]
1 to 20	Nc1ncn(Cc2ccccn2)c2ncnc1-2 [3-Pyridin-2-ylmethyl-3H-purin-6-ylamine]
1 to 20	Nc1ncn(Cc2c(Cl)ccnc2F)c2ncnc1-2 [3-[(4-chloro-2-fluoro-3-pyridyl)methyl]-3-hydropurine-6-ylamine]
≥ 20	CS(=O)(=O)Nc1ncn(Cc2c(Cl)cccc2Cl)c2ncnc1-2 [N-(3-(2,6-dichlorobenzyl)-3h-purin-6-yl)methanesulfonamide]
1 to 20	CN(C)c1ccc(Nc2ncn(Cc3c(Cl)cccc3Cl)c3ncnc2-3)cc1 [N1-(3-(2,6-dichlorobenzyl)-3H-purin-6-yl)-N4,N4-dimethylbenzene-1,4-diamine]
1 to 20	Cc1c(Cl)cccc1Nc1ncn(Cc2c(Cl)cccc2Cl)c2ncnc1-2 [N-(3-Chloro-2-methylphenyl)-3-(2,6-dichlorobenzyl)-3H-purin-6-amine]
≤ 1	Nc1ncn(Cc2c(Cl)cccc2Cl)c2nc(Cc3ccc(F)cc3)nc1-2 [3-[(2,6-dichlorophenyl)methyl]-8-[(4-fluorophenyl)methyl]-3-hydropurine-6-ylamine]
1 to 20	Cc1ccc(Nc2ncn(Cc3c(Cl)cccc3Cl)c3ncnc2-3)cc1 [{3-[(2,6-Dichlorophenyl)methyl](3-hydropurin-6-yl)}(4-methylphenyl)amine]
≤ 1	Nc1ncn(Cc2c(Cl)cccc2Cl)c2nc(-c3ccc(Cl)cc3)nc1-2 [3-[(2,6-Dichlorophenyl)methyl]-8-(4-chlorophenyl)-3-hydropurine-6-ylamine]
1 to 20	Clc1cccc(Nc2ncn(Cc3c(Cl)cccc3Cl)c3ncnc2-3)c1 [{3-[(2,6-Dichlorophenyl)methyl](3-hydropurin-6-yl)}(3-chlorophenyl)amine]
≤ 1	Nc1ncn(Cc2c(Cl)cccc2Cl)c2nc(-c3ccc4ocnc4c3)nc1-2 [8-Benzoxazol-5-yl-3-[(2,6-dichlorophenyl)methyl]-3-hydropurine-6-ylamine]
1 to 20	Fc1cccc(Cl)c1Cn1cnc(NCc2ccco2)c2ncnc1-2 [[3-(2-Chloro-6-fluoro-benzyl)-3H-purin-6-yl]-furan-2-ylmethyl-amine]
≤ 1	Nc1ncn(Cc2c(Cl)cccc2Cl)c2nc(C3=CCNCC3)nc1-2 [3-(2,6-Dichloro-benzyl)-8-(1,2,3,6-tetrahydro-pyridin-4-yl)-3H-purin-6-ylamine]
≤ 1	Nc1ncn(Cc2c(Cl)cccc2Cl)c2nc(-c3ccc4scnc4c3)nc1-2 [8-Benzothiazol-5-yl-3-[(2,6-dichlorophenyl)methyl]-3-hydropurine-6-ylamine]

Compound	IC50 [µM]
Clc1cccc(Cl)c1Cn1cnc(NCc2ccco2)c2ncnc1-2 [[3-(2,6-Dichloro-benzyl)-3H-purin-6-yl]-furan-2-ylmethyl-amine]	1 to 20
